According to paper PMC6895912 (Cancers, 2019):
Where “and” joins values, the source holds several entries; their conditions need not be identical. Equal values may be shown once.

Tested on: CWR22Rv1 xenografts
Assay: Antitumor efficacy in castration-resistant CWR22Rv1 xenograft model
Type: in vivo, male NOD SCID mice
Settings: 5 days/week, 16 days
Method: Following the in vitro studies and determination of the PK parameters, we then investigated the relative efficacy. Gal and the NGGAs in vivo using difficult-to-treat castration-resistant CWR22Rv1 xenografts. Given the enhanced IP and PO PK parameters of VNPP414 and VNPP433-3β over Gal, we decided to use lower doses of the new analogs compared to the previous Gal doses (200 mg/kg, IP/PO). Gal (200 mg/kg) served as positive control, while ENZ (25 mg/kg) administered PO was used as negative control. Male NOD SCID mice bearing CWR22Rv1 tumors were treated with vehicle, ENZ, Gal, VNPP414, and VNPP433-3β for 16 days as described in the Methods and Materials Section. […] In contrast, Gal and the NGGAs caused statistically significant tumor growth inhibition (TGI). […] It is notable that VNPP433-3β (at 7.5- and 15-fold lower molar doses) and VNPP414 (at 4-fold lower molar dose) are more efficacious than Gal. In general, no host toxicities were observed, as monitored by changes in animal body weight (Figure 7C).
Figure 7 Effects of Gal, NGGAs and ENZ in an in vivo castration-resistant prostate cancer model. (A) Mice bearing CWR22Rv1 xenografts (5 mice per group) were treated with vehicle, Gal (100 mg/kg/twice daily), VNPP414 (60 mg/kg, once daily), VNPP433-3β (15 or 30 mg/kg, once daily) and ENZ (25 mg.kg, once daily) 5 days per week for 16 days. Tumor volumes were measured twice a week and the tumors were collected. Tumor growth inhibition (TGI) values are indicated at the right of each growth curve, and the error bars are the SEM. Results are represented as means ± SEM. ^# p = ns (not significant vs. vehicle), ^$ p < 0.0272 vs. vehicle, * p < 0.0035 vs. vehicle, ** p < 0.0025 vs. vehicle and *** p < 0.0008 vs. vehicle. (B) Photographed tumors from each group. (C) Mean body weights of mice determined during the study. (D) Western blot analyses of tumor samples from each experimental group at day 16. […] It is left out because vehicle is a control, not a substance.
Male NOD SCID mice 5–6 weeks of age were obtained from University of Maryland School of Medicine Veterinary Resources (Baltimore, MD, USA. Mice were housed under complete aseptic conditions, fed autoclaved pellets and sterile water ad libitum. Following a week of acclimatization, approximately 5 × 10^6 CWR22Rv1 cells were inoculated one flank f mice. Tumor-bearing mice (tumor volume around ~100 mm^3) were randomized into 6 groups (5 mice in each group; compounds formulated in vehicle) and treated as follows: (i) vehicle control (40% β-cyclodextrin in saline, PO.), (ii) ENZ (25 mg/kg, PO, once daily), (iii) Gal (100mg/kg, PO, twice daily), (iv) VNPP414 (60 mg/kg, PO, once daily), (v) VNPP433-3β (15 mg/kg, PO, once daily), and (vi) VNPP433-3β (30 mg/kg, PO, once daily) for 5 days/week. Tumors were measured twice weekly with calipers and tumor volume was calculated by the formula: length × width^2 × 0.5 (mm^3). Animals were also weighed weekly and monitored for general health status and signs of possible toxicity due to treatments. Mice were sacrificed after the indicated periods of treatment and tumors excised. Tumors were divided and either flash frozen in liquid nitrogen or placed in 10% buffered formalin for western blot analysis.

## C[C@]12CC[C@H](O)CC1=CC[C@@H]1[C@@H]2CC[C@]2(C)C(n3cnc4ccccc43)=CC[C@@H]12 [Galeterone]
200 mg/kg (100 mg/kg PO twice daily), listed as Gal
  tumor growth inhibition (TGI): 47% and 46.5%

## C[C@]12CC[C@H](OCc3ccncc3)CC1=CCC1C2CC[C@]2(C)C(n3cnc4ccccc43)=CCC12 (stereo partly shown) [VNPP414]
60 mg/kg PO once daily
  tumor growth inhibition (TGI): 62.8%

## C[C@]12CC[C@H](n3ccnc3)CC1=CCC1C2CC[C@]2(C)C(n3cnc4ccccc43)=CCC12 (stereo partly drawn) [VNPP433-3β]
15 mg/kg PO once daily
  tumor growth inhibition (TGI): 60.5%
30 mg/kg PO once daily
  tumor growth inhibition (TGI): 84% and 83.7%
